Measured values reported in patent US9133116B2, “Bicyclic compounds” (PANACEA BIOTEC LTD., priority 2010, dated 2015).
Like-named read-outs stand apart in the source and are kept apart here. Marks after values point to notes of the source that are not given here.

What was measured:
male SWISS albino mice = assay: Forced Swim Test in mice; type: in vivo; settings: oral, 15 min before test, immobility in last 4 min of 6 min
Procedure: This test was conducted according to the method of Li, X., et al., Metabotropic Glutamate 5 Receptor Antagonism Is Associated with Antidepressant-Like Effects in Mice. J Pharmacol Exp Ther., 319(1):254-259 (2006), with slight modifications.
A test compound was suspended in 0.25% CMC, unless otherwise specified, and this solution was orally administered to male SWISS albino mice (7 to 9 week old). 15 min later, the mice were placed in a water tank having a water depth of 15 cm and a water temperature of 25±1° C. and immediately thereafter allowed to swim for 6 min. Then, a time during which the mouse was immobile (immobility time) was measured for the last 4 min.
Cleversys Software (Forced Swim Scan) was used for carrying out Forced Swim Test in mice.

SERT = target: T1, SERT (Homo sapiens, UniProt P31645); assay: Serotonin Binding Assay ([3H]-Citalopram Binding Assay); settings: NE = Not Effective; for inhibition at 0.1 µM / inhibition at 1 µM: 1 h
T1 construct: purchased Perkin Elmer
T1 sequence (P31645 whole entry): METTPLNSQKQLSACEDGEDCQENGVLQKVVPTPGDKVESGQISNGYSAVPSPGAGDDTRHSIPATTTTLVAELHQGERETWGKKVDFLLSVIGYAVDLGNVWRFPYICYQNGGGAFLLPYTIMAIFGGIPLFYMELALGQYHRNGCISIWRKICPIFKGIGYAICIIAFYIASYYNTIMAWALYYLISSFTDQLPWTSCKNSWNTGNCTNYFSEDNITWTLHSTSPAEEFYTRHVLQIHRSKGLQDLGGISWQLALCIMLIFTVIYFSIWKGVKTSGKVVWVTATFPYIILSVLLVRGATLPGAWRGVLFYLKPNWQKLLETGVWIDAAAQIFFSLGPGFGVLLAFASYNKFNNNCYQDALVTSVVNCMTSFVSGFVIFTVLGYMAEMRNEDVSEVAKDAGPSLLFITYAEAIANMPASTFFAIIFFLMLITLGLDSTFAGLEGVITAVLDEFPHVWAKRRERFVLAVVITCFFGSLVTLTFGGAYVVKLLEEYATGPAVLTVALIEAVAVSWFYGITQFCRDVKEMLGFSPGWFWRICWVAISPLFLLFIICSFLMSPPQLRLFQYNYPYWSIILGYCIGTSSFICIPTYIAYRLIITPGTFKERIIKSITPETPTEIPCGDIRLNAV
Procedure: 2. Serotonin Binding Assay
The Membrane protein of 0.4 mL size vial, with protein concentration of 9.0 mg/ml was bought from Perkin Elmer, stored in −80° C. until required.
[^3H]-Citalopram Binding Assay:
(§1) Each well of 96 well microtitre plate was set up to contain the following:
The microtitre plates were incubated at 25° C. for 60 min; reaction was stopped by filtration in GF/B filter plate (presoaked in 0.5% Polyethylenimine) and then added 50 μL of microscint 40. Radioactivity was measured on Liquid Scintillation counter (Perkin Elmer).

NET = target: T2, NET (Homo sapiens, UniProt P23975); assay: Norepinephrine Binding Assay ([3H]-Nisoxetine Binding Assay); settings: NE = Not Effective; for inhibition at 0.1 µM / inhibition at 1 µM: 1 h
T2 construct: purchased Perkin Elmer
T2 sequence (P23975 whole entry): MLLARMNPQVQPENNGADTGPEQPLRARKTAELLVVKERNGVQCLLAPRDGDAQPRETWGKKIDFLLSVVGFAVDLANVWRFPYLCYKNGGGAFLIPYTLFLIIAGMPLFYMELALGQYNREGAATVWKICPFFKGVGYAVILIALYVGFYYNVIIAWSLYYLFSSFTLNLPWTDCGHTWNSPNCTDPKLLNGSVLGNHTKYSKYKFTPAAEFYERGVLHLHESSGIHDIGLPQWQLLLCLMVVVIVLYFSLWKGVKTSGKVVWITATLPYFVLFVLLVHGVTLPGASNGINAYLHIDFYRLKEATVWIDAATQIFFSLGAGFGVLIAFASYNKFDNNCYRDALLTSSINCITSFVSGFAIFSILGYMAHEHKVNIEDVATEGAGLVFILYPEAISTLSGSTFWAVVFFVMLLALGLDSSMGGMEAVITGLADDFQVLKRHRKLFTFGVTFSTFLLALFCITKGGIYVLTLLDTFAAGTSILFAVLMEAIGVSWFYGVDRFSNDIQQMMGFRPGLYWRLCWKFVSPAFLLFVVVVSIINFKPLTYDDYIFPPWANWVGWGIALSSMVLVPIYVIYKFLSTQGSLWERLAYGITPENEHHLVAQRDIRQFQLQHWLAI
Procedure: 1. Norepinephrine Binding Assay
The Membrane protein of 0.4 mL size vial, with protein concentration of 3.0 mg/ml was bought from Perkin Elmer, stored in −80° C. until required.
[^3H]-Nisoxetine Binding Assay:
as §1
The microtitre plates were incubated at 4° C. for 60 mins; reaction was stopped by filtration in GF/B filter plate (presoaked in 0.5% Polyethylenimine) and then added 50 μl of microscint 40. Radioactivity was measured on Liquid Scintillation counter (Perkin Elmer).

DAT = target: T3, DAT (Homo sapiens, UniProt Q01959); assay: Dopamine Binding Assay ([3H]-WIN35,428 Binding Assay); settings: NE = Not Effective; for inhibition at 1 µM / inhibition at 0.1 µM: 2 h; for inhibition at 0.1 µM: read-out: DAT % WIN 35428 displacement 100 nM, 100 nM test compound
T3 construct: purchased Perkin Elmer
T3 sequence (Q01959 whole entry): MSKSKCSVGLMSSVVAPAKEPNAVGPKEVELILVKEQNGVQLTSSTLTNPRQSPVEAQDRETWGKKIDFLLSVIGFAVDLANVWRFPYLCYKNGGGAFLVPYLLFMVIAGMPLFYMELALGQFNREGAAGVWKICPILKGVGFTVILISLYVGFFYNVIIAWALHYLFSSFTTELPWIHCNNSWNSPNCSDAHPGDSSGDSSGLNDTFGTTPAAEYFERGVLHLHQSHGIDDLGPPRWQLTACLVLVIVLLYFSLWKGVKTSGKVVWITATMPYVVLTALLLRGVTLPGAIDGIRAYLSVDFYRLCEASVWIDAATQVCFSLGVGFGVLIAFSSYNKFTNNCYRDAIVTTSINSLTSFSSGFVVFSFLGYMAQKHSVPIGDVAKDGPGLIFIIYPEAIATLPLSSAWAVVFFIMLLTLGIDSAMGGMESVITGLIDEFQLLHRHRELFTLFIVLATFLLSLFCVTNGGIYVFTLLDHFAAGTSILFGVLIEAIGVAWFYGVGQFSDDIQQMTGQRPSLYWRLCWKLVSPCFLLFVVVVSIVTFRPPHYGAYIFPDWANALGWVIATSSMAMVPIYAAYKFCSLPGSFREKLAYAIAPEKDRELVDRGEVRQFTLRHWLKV
Procedure: 3. Dopamine Binding Assay
The Membrane protein of 0.4 mL size vial, with protein concentration of 12 mg/mL was bought from Perkin Elmer, stored in −80° C. until required.
[^3H]-WIN35,428 Binding Assay:
as §1
The microtitre plates were incubated at 4° C. for 120 min; reaction was stopped by filtration in GF/B filter plate (presoaked in 0.5% Polyethylenimine) and then added 50 μL of microscint 40. Radioactivity was measured on Liquid Scintillation counter (Perkin Elmer).

[1] = read-out: SERT % Citalopram displacement 100 nM, 100 nM test compound
[2] = read-out: SERT % Citalopram displacement 1 μM, 1 μM test compound
[3] = read-out: NET % Nisoxetine displacement 100 nM, 100 nM test compound
[4] = read-out: NET % Nisoxetine displacement 1 μM, 1 μM test compound
[5] = read-out: DAT % WIN 35428 displacement 1 μM, 1 μM test compound
[6] = 1 μM test compound, read-out: NET % Nisoxetine displacement 1 μM
[7] = 1 μM test compound, read-out: DAT % WIN 35428 displacement 1 μM
[8] = 100 nM test compound, read-out: SERT % Citalopram displacement 100 nM
[9] = 1 μM test compound, read-out: SERT % Citalopram displacement 1 μM

Structure (SMILES): CON=C(c1ccc(Cl)c(Cl)c1)C1C2CNCC21.Cl (stereo not drawn)
- % decrease in immobility time (dose 32 mg/kg) (male SWISS albino mice; vehicle de-ionized water): 80.0 ± 3.8^z %

Structure (SMILES): CON=CC1C2CNCC12c1ccc(Cl)c(Cl)c1.Cl (stereo not drawn)
- % decrease in immobility time (dose 32 mg/kg) (male SWISS albino mice; vehicle de-ionized water): 87.5 ± 4.1^z %

Structure (SMILES): CCON=CC1C2CNCC12c1ccc(Cl)c(Cl)c1.Cl (stereo not drawn)
- % decrease in immobility time (dose 32 mg/kg) (male SWISS albino mice; suspended in 0.25% CMC): 83.1 ± 9.6%

Structure (SMILES): CON=CC1C2CNCC12c1ccc(Cl)cc1.Cl (stereo not drawn)
- % decrease in immobility time (dose 32 mg/kg) (male SWISS albino mice; vehicle de-ionized water): 50.2 ± 14.7^z %

Structure (SMILES): CON=CC1C2CNCC12c1ccc(F)cc1.Cl (stereo not drawn)
- % decrease in immobility time (dose 32 mg/kg) (male SWISS albino mice; vehicle de-ionized water): 55.1 ± 13.0^z %

Structure (SMILES): CON=CC1C2CNCC12c1ccccc1.Cl (stereo not drawn)
- % decrease in immobility time (dose 32 mg/kg) (male SWISS albino mice; suspended in 0.25% CMC): 60.4 ± 12.6%

Structure (SMILES): CON=C(c1ccccc1)C1C2CNCC21 (stereo not drawn)
- inhibition at 0.1 µM (SERT; [1]): 18.4%
- inhibition at 1 µM (SERT; [2]): 27.5%

Structure (SMILES): CON=C(c1ccc2ccccc2c1)C1C2CNCC21 (stereo not drawn)
- inhibition at 0.1 µM (NET; [3]): 21.8%
- inhibition at 1 µM (NET; [4]): 60.5%
- inhibition at 0.1 µM (SERT; [1]): 77.2%
- inhibition at 1 µM (SERT; [2]): 93.4%

Structure (SMILES): ON=C(c1ccc(Cl)c(Cl)c1)C1C2CNCC21 (stereo not drawn)
- inhibition at 1 µM (NET; [4]): 25.1%
- inhibition at 1 µM (DAT; [5]): 49.6%
- inhibition at 0.1 µM (SERT; [1]): 29.8%
- inhibition at 1 µM (SERT; [2]): 74.8%

Structure (SMILES): CCON=C(c1ccc(Cl)c(Cl)c1)C1C2CNCC21 (stereo not drawn)
- inhibition at 0.1 µM (NET; [3]): 18.2%
- inhibition at 1 µM (NET; [4]): 61.5%
- inhibition at 1 µM (DAT; [5]): 71%
- inhibition at 0.1 µM (SERT; [1]): 49.8%
- inhibition at 1 µM (SERT; [2]): 87.5%

Structure (SMILES): C=CCON=C(c1ccc(Cl)c(Cl)c1)C1C2CNCC21 (stereo not drawn)
- inhibition at 0.1 µM (NET; 100 nM test compound, read-out: NET % Nisoxetine displacement 100 nM): 14.3%
- inhibition at 1 µM (NET; [6]): 71.3%
- inhibition at 1 µM (DAT; [7]): 78%
- inhibition at 0.1 µM (SERT; [8]): 72.6%
- inhibition at 1 µM (SERT; [9]): 94.4%

Structure (SMILES): Clc1ccc(C(=NOCC2CC2)C2C3CNCC32)cc1Cl (stereo not drawn)
- inhibition at 1 µM (NET; [6]): 33.9%
- inhibition at 1 µM (DAT; [7]): 68.7%
- inhibition at 0.1 µM (SERT; [8]): 69.8%
- inhibition at 1 µM (SERT; [9]): 95.5%

Structure (SMILES): Clc1ccc(C(=NOc2ccccc2)C2C3CNCC32)cc1Cl (stereo not drawn)
- inhibition at 1 µM (NET; [6]): 19.1%
- inhibition at 1 µM (SERT; [9]): 61.4%

Structure (SMILES): Clc1ccc(C(=NOCc2ccccc2)C2C3CNCC32)cc1Cl (stereo not drawn)
- inhibition at 1 µM (NET; [6]): 27.2%
- inhibition at 1 µM (DAT; [7]): 36%
- inhibition at 0.1 µM (SERT; [8]): 30.4%
- inhibition at 1 µM (SERT; [9]): 85.8%

Structure (SMILES): CON=CC1C2CNCC12c1ccc(Cl)c(Cl)c1 (stereo not drawn)
- inhibition at 0.1 µM (NET; [3]): 37.4%
- inhibition at 1 µM (NET; [4]): 82.3%
- inhibition at 0.1 µM (DAT): 30.6%
- inhibition at 1 µM (DAT; [5]): 66.3%
- inhibition at 0.1 µM (SERT; [1]): 65%
- inhibition at 1 µM (SERT; [2]): 91.8%

Structure (SMILES): CCON=CC1C2CNCC12c1ccc(Cl)c(Cl)c1 (stereo not drawn)
- inhibition at 0.1 µM (DAT): 16.7%
- inhibition at 1 µM (DAT; [5]): 71.8%
- inhibition at 0.1 µM (SERT; [1]): 83.7%
- inhibition at 1 µM (SERT; [2]): 94.4%

Structure (SMILES): Clc1ccc(C23CNCC2C3C=NOCc2ccccc2)cc1Cl (stereo not drawn)
- inhibition at 0.1 µM (NET; [3]): 34.6%
- inhibition at 1 µM (NET; [4]): 73.6%
- inhibition at 0.1 µM (DAT): 27%
- inhibition at 1 µM (DAT; [5]): 39%
- inhibition at 0.1 µM (SERT; [1]): 23.3%
- inhibition at 1 µM (SERT; [2]): 89%

Structure (SMILES): Fc1ccc(CON=CC2C3CNCC23c2ccc(Cl)c(Cl)c2)cc1 (stereo not drawn)
- inhibition at 1 µM (NET; [6]): 74.2%
- inhibition at 1 µM (DAT; [7]): 40.9%
- inhibition at 0.1 µM (SERT; [8]): 12.5%
- inhibition at 1 µM (SERT; [9]): 88.8%

Structure (SMILES): CON=CC1C2CNCC12c1ccc(Cl)cc1 (stereo not drawn)
- inhibition at 1 µM (NET; [4]): 54.5%
- inhibition at 1 µM (DAT; [5]): 29.9%
- inhibition at 0.1 µM (SERT; [1]): 37.8%
- inhibition at 1 µM (SERT; [2]): 85.6%

Structure (SMILES): CON=CC1C2CNCC12c1ccc(F)cc1 (stereo not drawn)
- inhibition at 0.1 µM (SERT; [1]): 43.5%
- inhibition at 1 µM (SERT; [2]): 85.1%

Structure (SMILES): CON=CC1C2CNCC12c1ccccc1 (stereo not drawn)
- inhibition at 0.1 µM (SERT; [1]): 39.2%
- inhibition at 1 µM (SERT; [2]): 79.9%

Structure (SMILES): CON=C(c1ccc(Cl)c(Cl)c1)C1C2CNCC21.Cl (stereo not drawn) [drawing 66]
- inhibition at 0.1 µM (NET; [3]): 15.6%
- inhibition at 1 µM (NET; [4]): 75.6%
- DAT % WIN 35428 displacement 1 μM (DAT; 1 μM test compound): 32.76%
- inhibition at 0.1 µM (SERT; [1]): 43.1%
- inhibition at 1 µM (SERT; [2]): 84.8%

Structure (SMILES): CON=C(c1ccc(Cl)c(Cl)c1)C1C2CNCC21 (stereo not drawn) [drawing 72]
- NET % Nisoxetine displacement 100 nM (NET; 100 nM test compound): 24.48%
- NET % Nisoxetine displacement 1 μM (NET; 1 μM test compound): 75.97%
- DAT % WIN 35428 displacement 1 μM (DAT; 1 μM test compound): 64.58%
- inhibition at 0.1 µM (DAT): 28.1%
- SERT % Citalopram displacement 100 nM (SERT; 100 nM test compound): 50.25%
- SERT % Citalopram displacement 1 μM (SERT; 1 μM test compound): 90.07%
